Source: PubChem BioAssay (NCI)
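Test compounds were applied to cells in 96-well plates for 48 hours at 5 doses. TGI is the concentration that stops growth completely.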

What was measured:
Assay in all cases: NCI-60 cell line screen, 48 h
MALME-3M melanoma = system: MALME-3M melanoma
SK-MEL-5 melanoma = system: SK-MEL-5 melanoma
MDA-N = system: MDA-N
UACC-257 melanoma = system: UACC-257 melanoma
MDA-MB-435 = system: MDA-MB-435
DU-145 prostate = system: DU-145 prostate
NCI-H522 lung = system: NCI-H522 lung
SF-539 CNS = system: SF-539 CNS
MDA-MB-231 breast = system: MDA-MB-231 breast
K-562 leukemia = system: K-562 leukemia
HT29 colon = system: HT29 colon
CAKI-1 renal = system: CAKI-1 renal
HCC-2998 colon = system: HCC-2998 colon
T-47D breast = system: T-47D breast
U251 CNS = system: U251 CNS
SW-620 colon = system: SW-620 colon
UO-31 renal = system: UO-31 renal
SK-OV-3 ovarian = system: SK-OV-3 ovarian
KM12 colon = system: KM12 colon
SNB-19 CNS = system: SNB-19 CNS
A549 NSCLC = system: A549 NSCLC
MOLT-4 leukemia = system: MOLT-4 leukemia
COLO 205 colon = system: COLO 205 colon
OVCAR-8 ovarian = system: OVCAR-8 ovarian
HCT-116 colon = system: HCT-116 colon
SK-MEL-2 melanoma = system: SK-MEL-2 melanoma
LOX IMVI melanoma = system: LOX IMVI melanoma
ACHN renal = system: ACHN renal
UACC-62 melanoma = system: UACC-62 melanoma
OVCAR-3 ovarian = system: OVCAR-3 ovarian
RXF 393 renal = system: RXF 393 renal
OVCAR-4 ovarian = system: OVCAR-4 ovarian
SK-MEL-28 melanoma = system: SK-MEL-28 melanoma
IGROV1 ovarian = system: IGROV1 ovarian
NCI/ADR-RES ovarian = system: NCI/ADR-RES ovarian
NCI-H460 lung = system: NCI-H460 lung
MCF7 breast = system: MCF7 breast
BT-549 breast = system: BT-549 breast
OVCAR-5 ovarian = system: OVCAR-5 ovarian
HS 578T breast = system: HS 578T breast
NCI-H23 lung = system: NCI-H23 lung
A498 renal = system: A498 renal
SF-295 CNS = system: SF-295 CNS
HOP-92 NSCLC = system: HOP-92 NSCLC
TK-10 renal = system: TK-10 renal
SF-268 CNS = system: SF-268 CNS
SR leukemia = system: SR leukemia
HOP-62 NSCLC = system: HOP-62 NSCLC
SN12C renal = system: SN12C renal
786-0 renal = system: 786-0 renal
M14 melanoma = system: M14 melanoma
HCT-15 colon = system: HCT-15 colon
SNB-75 CNS = system: SNB-75 CNS
NCI-H226 lung = system: NCI-H226 lung
EKVX NSCLC = system: EKVX NSCLC
RPMI-8226 leukemia = system: RPMI-8226 leukemia
CCRF-CEM leukemia = system: CCRF-CEM leukemia
HL-60(TB) leukemia = system: HL-60(TB) leukemia
PC-3 prostate = system: PC-3 prostate

## COc1cc(-c2nc3nc(N4CCN(C)CC4)ccc3[nH]2)c(OC)c2[nH]c(CO)nc12
MALME-3M melanoma
  TGI: > 100 µM
SK-MEL-5 melanoma
  TGI: > 100 µM
MDA-N
  TGI: > 100 µM
UACC-257 melanoma
  TGI: > 100 µM
MDA-MB-435
  TGI: > 100 µM
DU-145 prostate
  TGI: > 100 µM
NCI-H522 lung
  TGI: > 100 µM
SF-539 CNS
  TGI: > 100 µM
MDA-MB-231 breast
  TGI: > 100 µM
K-562 leukemia
  TGI: > 100 µM
HT29 colon
  TGI: > 100 µM
CAKI-1 renal
  TGI: > 100 µM
HCC-2998 colon
  TGI: > 100 µM
T-47D breast
  TGI: > 100 µM
U251 CNS
  TGI: > 100 µM
SW-620 colon
  TGI: > 100 µM
UO-31 renal
  TGI: > 100 µM
SK-OV-3 ovarian
  TGI: > 100 µM
KM12 colon
  TGI: > 100 µM
SNB-19 CNS
  TGI: > 100 µM
A549 NSCLC
  TGI: > 100 µM
MOLT-4 leukemia
  TGI: > 100 µM
COLO 205 colon
  TGI: > 100 µM
OVCAR-8 ovarian
  TGI: > 100 µM
HCT-116 colon
  TGI: > 100 µM
SK-MEL-2 melanoma
  TGI: 99.1 µM
LOX IMVI melanoma
  TGI: > 100 µM
ACHN renal
  TGI: > 100 µM
UACC-62 melanoma
  TGI: > 100 µM
OVCAR-3 ovarian
  TGI: > 100 µM
RXF 393 renal
  TGI: > 100 µM
OVCAR-4 ovarian
  TGI: > 100 µM
SK-MEL-28 melanoma
  TGI: > 100 µM
IGROV1 ovarian
  TGI: > 100 µM
NCI/ADR-RES ovarian
  TGI: > 100 µM
NCI-H460 lung
  TGI: > 100 µM
MCF7 breast
  TGI: > 100 µM
BT-549 breast
  TGI: > 100 µM
OVCAR-5 ovarian
  TGI: > 100 µM
HS 578T breast
  TGI: > 100 µM
NCI-H23 lung
  TGI: > 100 µM
A498 renal
  TGI: > 100 µM
SF-295 CNS
  TGI: > 100 µM
HOP-92 NSCLC
  TGI: > 100 µM
TK-10 renal
  TGI: > 100 µM
SF-268 CNS
  TGI: > 100 µM
SR leukemia
  TGI: > 100 µM
HOP-62 NSCLC
  TGI: > 100 µM
SN12C renal
  TGI: > 100 µM
786-0 renal
  TGI: > 100 µM
M14 melanoma
  TGI: > 100 µM
HCT-15 colon
  TGI: > 100 µM
SNB-75 CNS
  TGI: > 100 µM
NCI-H226 lung
  TGI: > 100 µM
EKVX NSCLC
  TGI: > 100 µM

## COc1oc(C(=O)NC2CCCCC2)c(-c2ccc(Cl)cc2)c1S(=O)(=O)c1ccccc1
MALME-3M melanoma
  TGI: > 45.9 µM
SK-MEL-5 melanoma
  TGI: > 100 µM
MDA-N
  TGI: > 100 µM
MDA-MB-435
  TGI: 28.9 µM
DU-145 prostate
  TGI: > 74.4 µM
NCI-H522 lung
  TGI: 2.94 µM
SF-539 CNS
  TGI: 14.4 µM
K-562 leukemia
  TGI: > 52.4 µM
HT29 colon
  TGI: 5.42 µM
CAKI-1 renal
  TGI: 10.7 µM
HCC-2998 colon
  TGI: > 100 µM
RPMI-8226 leukemia
  TGI: 5.59 µM
T-47D breast
  TGI: > 100 µM
U251 CNS
  TGI: 7.61 µM
SW-620 colon
  TGI: > 100 µM
UO-31 renal
  TGI: 3.22 µM
SK-OV-3 ovarian
  TGI: > 100 µM
KM12 colon
  TGI: 25.2 µM
SNB-19 CNS
  TGI: > 100 µM
A549 NSCLC
  TGI: > 100 µM
MOLT-4 leukemia
  TGI: > 75.2 µM
COLO 205 colon
  TGI: 44.9 µM
OVCAR-8 ovarian
  TGI: > 19.8 µM
HCT-116 colon
  TGI: > 100 µM
SK-MEL-2 melanoma
  TGI: 39 µM
LOX IMVI melanoma
  TGI: 7.54 µM
ACHN renal
  TGI: > 100 µM
CCRF-CEM leukemia
  TGI: 4.66 µM
HL-60(TB) leukemia
  TGI: 6.4 µM
UACC-62 melanoma
  TGI: 72.2 µM
OVCAR-3 ovarian
  TGI: 3.59 µM
RXF 393 renal
  TGI: 9.76 µM
OVCAR-4 ovarian
  TGI: 3.51 µM
SK-MEL-28 melanoma
  TGI: > 100 µM
IGROV1 ovarian
  TGI: 3.35 µM
NCI/ADR-RES ovarian
  TGI: 8.42 µM
NCI-H460 lung
  TGI: > 36.1 µM
MCF7 breast
  TGI: > 100 µM
BT-549 breast
  TGI: > 22.1 µM
OVCAR-5 ovarian
  TGI: > 100 µM
HS 578T breast
  TGI: 68.6 µM
NCI-H23 lung
  TGI: > 25.5 µM
A498 renal
  TGI: 4.08 µM
SF-295 CNS
  TGI: > 62 µM
HOP-92 NSCLC
  TGI: 3.06 µM
TK-10 renal
  TGI: > 89.1 µM
SF-268 CNS
  TGI: 10.8 µM
SR leukemia
  TGI: > 25.3 µM
HOP-62 NSCLC
  TGI: 22 µM
SN12C renal
  TGI: > 46.2 µM
786-0 renal
  TGI: 3.59 µM
M14 melanoma
  TGI: > 100 µM
HCT-15 colon
  TGI: > 100 µM
PC-3 prostate
  TGI: > 41.3 µM
SNB-75 CNS
  TGI: > 100 µM
NCI-H226 lung
  TGI: > 100 µM
EKVX NSCLC
  TGI: > 30.9 µM
